Test results as given in PMC6494879, “Drug resistance emergence in macaques administered cabotegravir long-acting for pre-exposure prophylaxis during acute SHIV infection” (Nature Communications, 2019).

Tested on: SIV integrase I72T (SIV IN RTV pseudovirus)
Assay: organism not typed
Format: cell-based
Conditions: HEK293

| SMILES | EC50 |
| --- | --- |
| C[C@@H]1CCO[C@H]2Cn3cc(C(=O)NCc4ccc(F)cc4F)c(=O)c(O)c3C(=O)N12 [DTG, dolutegravir] | 1.14 nM |
| O=C1Nc2ccc(Cl)cc2[C@@](C#CC2CC2)(C(F)(F)F)O1 [EFV, efavirenz] | 0.6 nM |

Same assay, conditions: {}

| SMILES | fold-change relative to wild type integrase |
| --- | --- |
| C[C@@H]1CCO[C@H]2Cn3cc(C(=O)NCc4ccc(F)cc4F)c(=O)c(O)c3C(=O)N12 [DTG, dolutegravir] | 1.1 fold |
| O=C1Nc2ccc(Cl)cc2[C@@](C#CC2CC2)(C(F)(F)F)O1 [EFV, efavirenz] | 0.9 fold |

Tested on: SIV integrase E92Q/G140R (SIV IN RTV pseudovirus)
Assay: not given
Format: cell-based
Conditions: E92Q/G140R SIV integrase mutant

| SMILES | fold-change relative to wild type integrase |
| --- | --- |
| C[C@@H]1CCO[C@H]2Cn3cc(C(=O)NCc4ccc(F)cc4F)c(=O)c(O)c3C(=O)N12 [DTG, dolutegravir] | >1000 (>1000) fold |
| O=C1Nc2ccc(Cl)cc2[C@@](C#CC2CC2)(C(F)(F)F)O1 [EFV, efavirenz] | 1.9 fold |

Tested on: SIV integrase WT (SIV IN RTV pseudovirus)
Assay: organism not typed
Format: cell-based
Conditions: HEK293

| SMILES | EC50 |
| --- | --- |
| C[C@@H]1CCO[C@H]2Cn3cc(C(=O)NCc4ccc(F)cc4F)c(=O)c(O)c3C(=O)N12 [DTG, dolutegravir] | 1 nM |
| O=C1Nc2ccc(Cl)cc2[C@@](C#CC2CC2)(C(F)(F)F)O1 [EFV, efavirenz] | 0.67 nM |

Same assay, conditions: WT SIV integrase

| SMILES | fold-change relative to wild type integrase |
| --- | --- |
| C[C@@H]1CCO[C@H]2Cn3cc(C(=O)NCc4ccc(F)cc4F)c(=O)c(O)c3C(=O)N12 [DTG, dolutegravir] | 1 fold |
| O=C1Nc2ccc(Cl)cc2[C@@](C#CC2CC2)(C(F)(F)F)O1 [EFV, efavirenz] | 1 fold |

Tested on: SIV integrase A122T (SIV IN RTV pseudovirus)
Assay: organism not typed
Format: cell-based
Conditions: HEK293

| SMILES | EC50 |
| --- | --- |
| C[C@@H]1CCO[C@H]2Cn3cc(C(=O)NCc4ccc(F)cc4F)c(=O)c(O)c3C(=O)N12 [DTG, dolutegravir] | 1.42 nM |
| O=C1Nc2ccc(Cl)cc2[C@@](C#CC2CC2)(C(F)(F)F)O1 [EFV, efavirenz] | 0.77 nM |

Same assay, conditions: {}

| SMILES | fold-change relative to wild type integrase |
| --- | --- |
| C[C@@H]1CCO[C@H]2Cn3cc(C(=O)NCc4ccc(F)cc4F)c(=O)c(O)c3C(=O)N12 [DTG, dolutegravir] | 1.4 fold |
| O=C1Nc2ccc(Cl)cc2[C@@](C#CC2CC2)(C(F)(F)F)O1 [EFV, efavirenz] | 1.2 fold |

Tested on: SIV integrase Q124R (SIV IN RTV pseudovirus)
Assay: organism not typed
Format: cell-based
Conditions: HEK293

| SMILES | EC50 |
| --- | --- |
| C[C@@H]1CCO[C@H]2Cn3cc(C(=O)NCc4ccc(F)cc4F)c(=O)c(O)c3C(=O)N12 [DTG, dolutegravir] | 1.62 nM |
| O=C1Nc2ccc(Cl)cc2[C@@](C#CC2CC2)(C(F)(F)F)O1 [EFV, efavirenz] | 0.7 nM |

Same assay, conditions: {}

| SMILES | fold-change relative to wild type integrase |
| --- | --- |
| C[C@@H]1CCO[C@H]2Cn3cc(C(=O)NCc4ccc(F)cc4F)c(=O)c(O)c3C(=O)N12 [DTG, dolutegravir] | 1.6 fold |
| O=C1Nc2ccc(Cl)cc2[C@@](C#CC2CC2)(C(F)(F)F)O1 [EFV, efavirenz] | 1.0 fold |

Tested on: HIV integrase G140S/A/C
Assay: not given
Conditions: cited from earlier work

| SMILES | fold reduced susceptibility of HIV with G140S/A/C |
| --- | --- |
| C[C@@H]1CCO[C@H]2Cn3cc(C(=O)NCc4ccc(F)cc4F)c(=O)c(O)c3C(=O)N12 [DTG, dolutegravir] | 10-100 fold |

Tested on: SIV integrase I250V (SIV IN RTV pseudovirus)
Assay: organism not typed
Format: cell-based
Conditions: HEK293

| SMILES | EC50 |
| --- | --- |
| C[C@@H]1CCO[C@H]2Cn3cc(C(=O)NCc4ccc(F)cc4F)c(=O)c(O)c3C(=O)N12 [DTG, dolutegravir] | 0.92 nM |
| O=C1Nc2ccc(Cl)cc2[C@@](C#CC2CC2)(C(F)(F)F)O1 [EFV, efavirenz] | 0.67 nM |

Same assay, conditions: {}

| SMILES | fold-change relative to wild type integrase |
| --- | --- |
| C[C@@H]1CCO[C@H]2Cn3cc(C(=O)NCc4ccc(F)cc4F)c(=O)c(O)c3C(=O)N12 [DTG, dolutegravir] | 0.9 fold |
| O=C1Nc2ccc(Cl)cc2[C@@](C#CC2CC2)(C(F)(F)F)O1 [EFV, efavirenz] | 1.0 fold |

Tested on: SIV integrase G118R (SIV IN RTV pseudovirus)
Assay: not given
Format: cell-based
Conditions: G118R SIV integrase mutant

| SMILES | fold-change relative to wild type integrase |
| --- | --- |
| C[C@@H]1CCO[C@H]2Cn3cc(C(=O)NCc4ccc(F)cc4F)c(=O)c(O)c3C(=O)N12 [DTG, dolutegravir] | >1000 (>1000) fold |
| O=C1Nc2ccc(Cl)cc2[C@@](C#CC2CC2)(C(F)(F)F)O1 [EFV, efavirenz] | 1.5 fold |

Tested on: SIV integrase E92G (SIV IN RTV pseudovirus)
Assay: not given
Conditions: not given

| SMILES | EC50 | fold-change relative to wild type integrase |
| --- | --- | --- |
| C[C@@H]1CCO[C@H]2Cn3cc(C(=O)NCc4ccc(F)cc4F)c(=O)c(O)c3C(=O)N12 [DTG, dolutegravir] | 2.78 nM | 2.8 fold |
| O=C1Nc2ccc(Cl)cc2[C@@](C#CC2CC2)(C(F)(F)F)O1 [EFV, efavirenz] | 1.01 nM | 1.5 fold |

Tested on: SIV integrase E92Q (SIV IN RTV pseudovirus)
Assay: not given
Format: cell-based
Conditions: E92Q SIV integrase mutant

| SMILES | fold-change relative to wild type integrase |
| --- | --- |
| C[C@@H]1CCO[C@H]2Cn3cc(C(=O)NCc4ccc(F)cc4F)c(=O)c(O)c3C(=O)N12 [DTG, dolutegravir] | 1.5 fold |
| O=C1Nc2ccc(Cl)cc2[C@@](C#CC2CC2)(C(F)(F)F)O1 [EFV, efavirenz] | 0.8 fold |

Tested on: SIV integrase I110V (SIV IN RTV pseudovirus)
Assay: organism not typed
Format: cell-based
Conditions: HEK293

| SMILES | EC50 |
| --- | --- |
| C[C@@H]1CCO[C@H]2Cn3cc(C(=O)NCc4ccc(F)cc4F)c(=O)c(O)c3C(=O)N12 [DTG, dolutegravir] | 1.52 nM |
| O=C1Nc2ccc(Cl)cc2[C@@](C#CC2CC2)(C(F)(F)F)O1 [EFV, efavirenz] | 0.79 nM |

Same assay, conditions: {}

| SMILES | fold-change relative to wild type integrase |
| --- | --- |
| C[C@@H]1CCO[C@H]2Cn3cc(C(=O)NCc4ccc(F)cc4F)c(=O)c(O)c3C(=O)N12 [DTG, dolutegravir] | 1.5 fold |
| O=C1Nc2ccc(Cl)cc2[C@@](C#CC2CC2)(C(F)(F)F)O1 [EFV, efavirenz] | 1.2 fold |

Tested on: SIV integrase G118R/A122T (SIV IN RTV pseudovirus)
Assay: not given
Format: cell-based
Conditions: G118R/A122T SIV integrase mutant

| SMILES | fold-change relative to wild type integrase |
| --- | --- |
| C[C@@H]1CCO[C@H]2Cn3cc(C(=O)NCc4ccc(F)cc4F)c(=O)c(O)c3C(=O)N12 [DTG, dolutegravir] | >1000 (>1000) fold |
| O=C1Nc2ccc(Cl)cc2[C@@](C#CC2CC2)(C(F)(F)F)O1 [EFV, efavirenz] | 1.1 fold |

Tested on: SIV integrase G140R (SIV IN RTV pseudovirus)
Assay: organism not typed
Format: cell-based
Conditions: HEK293

| SMILES | EC50 |
| --- | --- |
| C[C@@H]1CCO[C@H]2Cn3cc(C(=O)NCc4ccc(F)cc4F)c(=O)c(O)c3C(=O)N12 [DTG, dolutegravir] | > 1000 nM |
| O=C1Nc2ccc(Cl)cc2[C@@](C#CC2CC2)(C(F)(F)F)O1 [EFV, efavirenz] | 0.59 nM |

Same assay, conditions: {}

| SMILES | fold-change relative to wild type integrase |
| --- | --- |
| C[C@@H]1CCO[C@H]2Cn3cc(C(=O)NCc4ccc(F)cc4F)c(=O)c(O)c3C(=O)N12 [DTG, dolutegravir] | >1000 (>1000) fold |
| O=C1Nc2ccc(Cl)cc2[C@@](C#CC2CC2)(C(F)(F)F)O1 [EFV, efavirenz] | 0.9 fold |
